Each structure is given as a SMILES string. pIC50: −log10 of the molar value. Square brackets hold non-standard residues; d marks the D form. Peptide text beside a SMILES is read from it. * marks the point of attachment. Sta = CC(C)C[C@H](N)[C@@H](O)CC(=O)O; Isovaleryl = CC(C)CC(=O)*

For one experiment, the system named is hog renin. The settings on record: after the injection of hog renin into nephrectomized rats; cited from earlier work.
The target of a further experiment is T1, renin (Homo sapiens, UniProt P00797).
T1 sequence (P00797 67-406): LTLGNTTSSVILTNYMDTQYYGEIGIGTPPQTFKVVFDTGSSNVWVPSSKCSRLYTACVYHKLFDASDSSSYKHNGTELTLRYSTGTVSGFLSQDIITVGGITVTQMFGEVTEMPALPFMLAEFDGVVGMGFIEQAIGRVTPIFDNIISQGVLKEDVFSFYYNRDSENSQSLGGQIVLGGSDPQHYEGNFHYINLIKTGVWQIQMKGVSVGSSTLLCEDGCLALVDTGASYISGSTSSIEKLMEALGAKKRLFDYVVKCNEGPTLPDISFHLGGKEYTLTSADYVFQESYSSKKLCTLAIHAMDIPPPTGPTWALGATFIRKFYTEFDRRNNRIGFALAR
As to the kind of experiment: renin inhibition (IC50 printed in the synthesis text, no method described). The format is biochemical.

On to `CC(C)CC(=O)N[C@H](C(=O)N[C@H](C(=O)N[C@@H](CC(C)C)[C@@H](O)CC(=O)N[C@@H](C)C(=O)N[C@@H](CC(C)C)[C@@H](O)CC(=O)O)C(C)C)C(C)C` [pepstatin] (Isovaleryl-VV[Sta]A[Sta]-OH), for which the “blood pressure in vivo” value with hog renin was “reduces blood pressure”.

`CC(C)S(=O)(=O)C[C@@H](CCc1ccccc1)C(=O)N[C@@H](Cc1c[nH]cn1)C(=O)N[C@@H](CC1CCCCC1)[C@@H](O)CC(=O)NC1CN2CCC1CC2` (stereo partly drawn) [3-benzyl-2-(S)-(isopropylsulfonylmethyl)propionyl-L-histidyl-(3S,4S)-4-amino-5-cyclohexyl 3-hydroxypentanoyl 3-quinuclidinyl amide]: the pIC50 against renin is 7.96.

Source of the values: patent US4839357A, “Renin inhibitors containing phenylalanyl-histidine replacements” (Merck & Co., Inc., priority 1987, dated 1989).
